# Results taken from US10577363B2, “Substituted piperidine compounds” (EPIZYME, INC., priority 2014, dated 2020).
# Target: SMYD3 (Homo sapiens (Human), UniProt Q9H7B4)
# Test: SMYD3 biochemical assay (SPA, 3H-SAM methylation of MEKK2 protein substrate)
# Details: read-out: SMYD3 Biochem IC50 (μM)*
# How it was run: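 Tritium incorporation into GST-MEKK2 is counted by scintillation proximity after citric acid bead capture. Native human SMYD3 is preincubated with test compound for 30 min at room temperature at pH 8.0 (Tris-Cl, TCEP, BSG, Tween 20) before 3H-SAM and substrate are added; cold SAM at 100 uM final stops turnover.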
row,Compound,IC50
1,"C[C@@H]1CC(NC(=O)c2cc(C3CC3)on2)CCN1C[C@H]1CC[C@H](N)CC1 (stereo partly drawn) [compound 113, N-((2R)-1-(((1r,4R)-4-aminocyclohexyl)methyl)-2-methylpiperidin-4-yl)-5-cyclopropylisoxazole-3-carboxamide]",4.59 µM
2,"CC1(C)CC(NC(=O)c2cc(C3CC3)on2)CCN1C(=O)[C@H]1CC[C@H](N)CC1 (stereo partly shown) [compound 114, N-(1-((1r,4r)-4-aminocyclohexane-1-carbonyl)-2,2-dimethylpiperidin-4-yl)-5-cyclopropylisoxazole-3-carboxamide]",1.31 µM
3,"C[C@H]1CC(NC(=O)c2cc(C3CC3)on2)CCN1C(=O)CC1(C)CCNCC1 (stereo partly drawn) [compound 115, 5-cyclopropyl-N-((2S)-2-methyl-1-(2-(4-methylpiperidin-4-yl)acetyl)piperidin-4-yl)isoxazole-3-carboxamide]",0.472 µM
4,"C[C@@H]1CC(NC(=O)c2cc(C3CC3)on2)CCN1C(=O)CC1(C)CCNCC1 (stereo partly drawn) [compound 116, 5-cyclopropyl-N-((2R)-2-methyl-1-(2-(4-methylpiperidin-4-yl)acetyl)piperidin-4-yl)isoxazole-3-carboxamide]",2.91 µM
5,"C[C@H]1CC(NC(=O)c2cc(C3CC3)on2)CCN1C(=O)[C@H]1CCC[C@@H](N)C1 (stereo partly drawn) [compound 117, N-((2S)-1-((1S,3R)-3-aminocyclohexane-1-carbonyl)-2-methylpiperidin-4-yl)-5-cyclopropylisoxazole-3-carboxamide]",5.6 µM
6,"CCOC(=O)C1CN(C(=O)CC2CCNCC2)CCC1NC(=O)c1cc(C2CC2)on1 (stereo not shown) [compound 119, ethyl 4-(5-cyclopropylisoxazole-3-carboxamido)-1-(2-(piperidin-4-yl)acetyl)piperidine-3-carboxylate]",2.99 µM
7,"NC[C@@H](Cc1ccc(O)c(C(F)(F)F)c1)C(=O)N1CCC(NC(=O)c2cc(C3CC3)on2)CC1 [compound 120, (R)-N-(1-(3-amino-2-(4-hydroxy-3-(trifluoromethyl)benzyl)propanoyl)piperidin-4-yl)-5-cyclopropylisoxazole-3-carboxamide]",0.0816 µM
8,"C[C@@H]1CC(NC(=O)c2cc(C3CC3)on2)CCN1C(=O)N1CCC(N)CC1 (stereo partly drawn) [compound 122, N-((2R)-1-(4-aminopiperidine-1-carbonyl)-2-methylpiperidin-4-yl)-5-cyclopropylisoxazole-3-carboxamide]",0.851 µM
9,"N[C@H]1CC[C@H](C(=O)N2CC3CC2CC3NC(=O)c2cc(C3CC3)on2)CC1 (stereo partly shown) [compound 123, N-(2-((1r,4r)-4-aminocyclohexane-1-carbonyl)-2-azabicyclo[2.2.1]heptan-5-yl)-5-cyclopropylisoxazole-3-carboxamide]",1.17 µM
10,"O=C(NC1CC2CCCC(C1)N2C(=O)CC1CCNCC1)c1cc(C2CC2)on1 (stereo not shown) [compound 125, 5-cyclopropyl-N-(9-(2-(piperidin-4-yl)acetyl)-9-azabicyclo[3.3.1]nonan-3-yl)isoxazole-3-carboxamide]",7.76 µM
11,"O=C(N[C@@H]1C[C@H]2CC[C@@H](C1)N2C(=O)CC1CCNCC1)c1cc(C2CC2)on1 [compound 126, 5-cyclopropyl-N-((1R,3s,5S)-8-(2-(piperidin-4-yl)acetyl)-8-azabicyclo[3.2.1]octan-3-yl)isoxazole-3-carboxamide]",9.86 µM
12,"O=C(N[C@H]1C[C@H]2CC[C@@H](C1)N2C(=O)CC1CCNCC1)c1cc(C2CC2)on1 [compound 127, 5-cyclopropyl-N-((1R,3r,5S)-8-(2-(piperidin-4-yl)acetyl)-8-azabicyclo[3.2.1]octan-3-yl)isoxazole-3-carboxamide]",1.28 µM
13,"C[C@H]1CC(NC(=O)c2cc(C3CC3)on2)CCN1C(=O)CC1CC2CCC(C1)N2 (stereo partly drawn) [compound 128, N-((2S)-1-(2-(8-azabicyclo[3.2.1]octan-3-yl)acetyl)-2-methylpiperidin-4-yl)-5-cyclopropylisoxazole-3-carboxamide]",0.844 µM
14,"C[C@@H]1CC(NC(=O)c2cc(C3CC3)on2)CCN1C(=O)CC1CC2CCC(C1)N2 (stereo partly drawn) [compound 129, N-((2R)-1-(2-(8-azabicyclo[3.2.1]octan-3-yl)acetyl)-2-methylpiperidin-4-yl)-5-cyclopropylisoxazole-3-carboxamide]",0.595 µM
15,"C[C@H]1CC(NC(=O)c2cc(C3CC3)on2)CCN1C(=O)C1CC2(CC(N)C2)C1 (stereo partly drawn) [compound 130, N-((2S)-1-(6-aminospiro[3.3]heptane-2-carbonyl)-2-methylpiperidin-4-yl)-5-cyclopropylisoxazole-3-carboxamide]",1.3 µM
16,"C[C@H]1CC(NC(=O)c2cc(C3CC3)on2)CCN1C(=O)[C@H]1CC[C@H](N)CO1 (stereo partly drawn) [compound 131, N-((2S)-1-((2R,5S)-5-aminotetrahydro-2H-pyran-2-carbonyl)-2-methylpiperidin-4-yl)-5-cyclopropylisoxazole-3-carboxamide]",2.08 µM
17,"C[C@H]1CC(NC(=O)c2cc(C3CC3)on2)CCN1C(=O)C1CCCNC1 (stereo partly drawn) [compound 132, 5-cyclopropyl-N-((2S)-2-methyl-1-(piperidine-3-carbonyl)piperidin-4-yl)isoxazole-3-carboxamide]",5.55 µM

row,Compound,IC50
1,"C[C@H]1CC(NC(=O)c2cc(C3CC3)on2)CCN1C(=O)C[C@H](O)CCN (stereo partly drawn) [compound 133, N-((2S)-1-((R)-5-amino-3-hydroxypentanoyl)-2-methylpiperidin-4-yl)-5-cyclopropylisoxazole-3-carboxamide]",6.24 µM
2,"C[C@@H]1CC(NC(=O)c2cc(C3CC3)on2)CCN1C(=O)C[C@H](O)CCN (stereo partly drawn) [compound 134, N-((2R)-1-((R)-5-amino-3-hydroxypentanoyl)-2-methylpiperidin-4-yl)-5-cyclopropylisoxazole-3-carboxamide]",1.86 µM
3,"C[C@@H]1CC(NC(=O)c2cc(C3CC3)on2)CCN1C(=O)C1CNCC(O)C1 (stereo partly drawn) [compound 135, 5-cyclopropyl-N-((2R)-1-(5-hydroxypiperidine-3-carbonyl)-2-methylpiperidin-4-yl)isoxazole-3-carboxamide]",2.49 µM
4,"C[C@@H]1CC(NC(=O)c2cc(C3CC3)on2)CCN1C(=O)C1CC12CCNCC2 (stereo partly drawn) [compound 136, 5-cyclopropyl-N-((2R)-2-methyl-1-(6-azaspiro[2.5]octane-1-carbonyl)piperidin-4-yl)isoxazole-3-carboxamide]",0.759 µM
5,"C[C@@H]1CC(NC(=O)c2cc(C3CC3)on2)CCN1C(=O)[C@H]1CC[C@H](O)CC1 (stereo partly drawn) [compound 137, 5-cyclopropyl-N-((2R)-1-((1r,4R)-4-hydroxycyclohexane-1-carbonyl)-2-methylpiperidin-4-yl)isoxazole-3-carboxamide]",41.2 µM
6,"C[C@H]1CC(NC(=O)c2cc(C3CC3)on2)CCN1C[C@H]1CC[C@H](N)CC1 (stereo partly drawn) [compound 138, N-((2S)-1-(((1r,4S)-4-aminocyclohexyl)methyl)-2-methylpiperidin-4-yl)-5-cyclopropylisoxazole-3-carboxamide]",4.31 µM
7,"C[C@@H]1CC(NC(=O)c2cc(C3CC3)on2)CCN1C(=O)[C@H]1CC[C@H](N(C)C)CC1 (stereo partly drawn) [compound 139, 5-cyclopropyl-N-((2R)-1-((1r,4R)-4-(dimethylamino)cyclohexane-1-carbonyl)-2-methylpiperidin-4-yl)isoxazole-3-carboxamide]",1.65 µM
8,"CC1CNCCC1CC(=O)N1CCC(NC(=O)c2cc(C3CC3)on2)C[C@H]1C (stereo partly drawn) [compound 140, 5-cyclopropyl-N-((2R)-2-methyl-1-(2-(3-methylpiperidin-4-yl)acetyl)piperidin-4-yl)isoxazole-3-carboxamide]",0.842 µM
9,"CC1CC(CC(=O)N2CCC(NC(=O)c3cc(C4CC4)on3)C[C@@H]2C)CCN1 (stereo partly drawn) [compound 141, 5-cyclopropyl-N-((2S)-2-methyl-1-(2-(2-methylpiperidin-4-yl)acetyl)piperidin-4-yl)isoxazole-3-carboxamide]",3.53 µM
10,"C[C@H]1CC(NC(=O)c2cc(C3CC3)on2)CCN1C(=O)CCCN (stereo partly drawn) [compound 142, N-((2S)-1-(4-aminobutanoyl)-2-methylpiperidin-4-yl)-5-cyclopropylisoxazole-3-carboxamide]",3.65 µM
11,"C[C@@H]1CC(NC(=O)c2cc(C3CC3)on2)CCN1C(=O)[C@H]1CCC[C@@H](N)C1 (stereo partly drawn) [compound 143, N-((2R)-1-((1S,3R)-3-aminocyclohexane-1-carbonyl)-2-methylpiperidin-4-yl)-5-cyclopropylisoxazole-3-carboxamide]",1.99 µM
12,"C[C@@H]1CC(NC(=O)c2cc(C3CC3)on2)CCN1C(=O)C1CC2(CCNC2)C1 (stereo partly drawn) [compound 144, 5-cyclopropyl-N-((2R)-2-methyl-1-(6-azaspiro[3.4]octane-2-carbonyl)piperidin-4-yl)isoxazole-3-carboxamide]",0.546 µM
13,"N[C@@H]1CC[C@@H](C(=O)N2CCC(NC(=O)c3cc(C4CC4)on3)CC2)C1 [compound 145, N-(1-((1R,3R)-3-aminocyclopentane-1-carbonyl)piperidin-4-yl)-5-cyclopropylisoxazole-3-carboxamide]",5.98 µM
14,"C[C@@H]1CN(C(=O)[C@H]2CC[C@H](N)CC2)CC[C@H]1NC(=O)c1cc(C2CC2)on1 [compound 146, N-((3R,4R)-1-((1r,4R)-4-aminocyclohexane-1-carbonyl)-3-methylpiperidin-4-yl)-5-cyclopropylisoxazole-3-carboxamide]",2.28 µM
15,"C[C@@H]1CN(C(=O)CC2CCNCC2)CC[C@H]1NC(=O)c1cc(C2CC2)on1 [compound 147, 5-cyclopropyl-N-((3R,4R)-3-methyl-1-(2-(piperidin-4-yl)acetyl)piperidin-4-yl)isoxazole-3-carboxamide]",1.53 µM
16,"CC1(NC(=O)c2cc(C3CC3)on2)CCN(C(=O)[C@H]2CC[C@H](N)CC2)CC1 [compound 150, N-(1-((1r,4r)-4-aminocyclohexane-1-carbonyl)-4-methylpiperidin-4-yl)-5-cyclopropylisoxazole-3-carboxamide]",0.91 µM
17,"CCOC(=O)C1CN(C(=O)[C@H]2CC[C@H](N)CC2)CCC1NC(=O)c1cc(C2CC2)on1 (stereo partly shown) [compound 151, ethyl 1-((1r,4r)-4-aminocyclohexane-1-carbonyl)-4-(5-cyclopropylisoxazole-3-carboxamido)piperidine-3-carboxylate]",3.54 µM
